IC50 data for 21 compounds are collected here from patent US20100311714A1, “1H-IMIDAZO[4,5-c]QUINOLINONE COMPOUNDS” (priority 2009, published 2010).

Molecules are shown by their SMILES. Read-outs that look alike come from different tables or passages of the source.

In assay [1] the target is T1, PI3K delta (Homo sapiens, UniProt O00329).
T1 construct: for the full-length p110-d subunit are generated and fused by overlapping PCR; His tag (C); made in house; host or cells: baculovirus BV1060; Tn5 (Trichoplusia ni) or TiniPro insect cells
As to the kind of experiment: PI3K delta kinase assay (Kinase-Glo luminescence). Type of assay: biochemical. A digest of the protocol:
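IC50s derive from 8-point inhibition curves fitted to a 4-parameter logistic model. Reaction: 10 nM purified p110δ/p85 iSH2 fusion, 1 μM ATP, 10 μg/mL PI substrate, pH 7.5 Tris buffer with MgCl2, NaCl, CHAPS and DTT, run 60 min at room temperature; remaining ATP read by Kinase-Glo luminescence.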
In general terms: Kinase-Glo measures the ATP left after a reaction by luminescence.

Assay [2] concerns the target T2, PI3K alfa (Homo sapiens, UniProt P42336).
T2 construct: His tag (C); made in house; host or cells: baculovirus BV1075; Tn5 (Trichoplusia ni) or TiniPro insect cells
As to the kind of experiment: PI3K alpha kinase assay (Kinase-Glo luminescence). In kind it is biochemical. In a few lines: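 IC50 values come from a four-parameter logistic fit of percent inhibition at eight concentrations, typically 10 to 0.003 μM. Recombinant PI3Kα at 10 nM turned over 1 μM ATP with 10 μg/mL PI for 60 min at room temperature, and residual ATP was measured by Kinase-Glo.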

T2 sequence (P42336 with tags, fused parts or gaps limits assumed): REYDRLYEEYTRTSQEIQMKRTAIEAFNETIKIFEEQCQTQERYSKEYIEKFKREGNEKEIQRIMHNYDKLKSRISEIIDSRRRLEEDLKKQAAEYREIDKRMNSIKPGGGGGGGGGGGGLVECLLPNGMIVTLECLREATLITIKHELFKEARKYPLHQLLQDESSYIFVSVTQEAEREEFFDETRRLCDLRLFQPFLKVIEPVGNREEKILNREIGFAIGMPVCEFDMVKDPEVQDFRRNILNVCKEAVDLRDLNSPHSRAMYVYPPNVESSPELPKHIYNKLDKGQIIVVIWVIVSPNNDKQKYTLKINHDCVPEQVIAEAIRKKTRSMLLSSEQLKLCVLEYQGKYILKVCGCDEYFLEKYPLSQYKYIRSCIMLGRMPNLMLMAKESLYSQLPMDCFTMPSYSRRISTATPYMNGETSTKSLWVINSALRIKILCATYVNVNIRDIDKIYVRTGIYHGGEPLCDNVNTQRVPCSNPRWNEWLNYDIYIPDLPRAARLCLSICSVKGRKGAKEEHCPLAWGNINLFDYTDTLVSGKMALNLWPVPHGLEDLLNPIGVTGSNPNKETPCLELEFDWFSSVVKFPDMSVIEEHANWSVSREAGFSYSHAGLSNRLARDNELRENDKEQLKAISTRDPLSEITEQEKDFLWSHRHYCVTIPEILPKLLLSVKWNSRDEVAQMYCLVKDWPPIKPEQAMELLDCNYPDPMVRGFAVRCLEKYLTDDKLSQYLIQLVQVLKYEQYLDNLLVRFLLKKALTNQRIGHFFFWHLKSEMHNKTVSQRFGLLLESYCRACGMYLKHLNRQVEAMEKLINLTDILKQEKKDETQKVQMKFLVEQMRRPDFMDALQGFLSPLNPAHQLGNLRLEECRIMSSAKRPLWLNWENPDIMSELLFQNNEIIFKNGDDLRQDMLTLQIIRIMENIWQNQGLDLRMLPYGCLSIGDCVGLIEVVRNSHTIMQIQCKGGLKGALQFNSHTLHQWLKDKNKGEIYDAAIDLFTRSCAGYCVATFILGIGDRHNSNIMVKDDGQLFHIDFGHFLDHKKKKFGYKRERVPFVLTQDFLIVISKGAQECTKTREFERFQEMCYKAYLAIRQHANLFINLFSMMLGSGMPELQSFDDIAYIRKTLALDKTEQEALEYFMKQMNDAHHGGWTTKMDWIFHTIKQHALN
T1 sequence (O00329 with tags, fused parts or gaps limits assumed): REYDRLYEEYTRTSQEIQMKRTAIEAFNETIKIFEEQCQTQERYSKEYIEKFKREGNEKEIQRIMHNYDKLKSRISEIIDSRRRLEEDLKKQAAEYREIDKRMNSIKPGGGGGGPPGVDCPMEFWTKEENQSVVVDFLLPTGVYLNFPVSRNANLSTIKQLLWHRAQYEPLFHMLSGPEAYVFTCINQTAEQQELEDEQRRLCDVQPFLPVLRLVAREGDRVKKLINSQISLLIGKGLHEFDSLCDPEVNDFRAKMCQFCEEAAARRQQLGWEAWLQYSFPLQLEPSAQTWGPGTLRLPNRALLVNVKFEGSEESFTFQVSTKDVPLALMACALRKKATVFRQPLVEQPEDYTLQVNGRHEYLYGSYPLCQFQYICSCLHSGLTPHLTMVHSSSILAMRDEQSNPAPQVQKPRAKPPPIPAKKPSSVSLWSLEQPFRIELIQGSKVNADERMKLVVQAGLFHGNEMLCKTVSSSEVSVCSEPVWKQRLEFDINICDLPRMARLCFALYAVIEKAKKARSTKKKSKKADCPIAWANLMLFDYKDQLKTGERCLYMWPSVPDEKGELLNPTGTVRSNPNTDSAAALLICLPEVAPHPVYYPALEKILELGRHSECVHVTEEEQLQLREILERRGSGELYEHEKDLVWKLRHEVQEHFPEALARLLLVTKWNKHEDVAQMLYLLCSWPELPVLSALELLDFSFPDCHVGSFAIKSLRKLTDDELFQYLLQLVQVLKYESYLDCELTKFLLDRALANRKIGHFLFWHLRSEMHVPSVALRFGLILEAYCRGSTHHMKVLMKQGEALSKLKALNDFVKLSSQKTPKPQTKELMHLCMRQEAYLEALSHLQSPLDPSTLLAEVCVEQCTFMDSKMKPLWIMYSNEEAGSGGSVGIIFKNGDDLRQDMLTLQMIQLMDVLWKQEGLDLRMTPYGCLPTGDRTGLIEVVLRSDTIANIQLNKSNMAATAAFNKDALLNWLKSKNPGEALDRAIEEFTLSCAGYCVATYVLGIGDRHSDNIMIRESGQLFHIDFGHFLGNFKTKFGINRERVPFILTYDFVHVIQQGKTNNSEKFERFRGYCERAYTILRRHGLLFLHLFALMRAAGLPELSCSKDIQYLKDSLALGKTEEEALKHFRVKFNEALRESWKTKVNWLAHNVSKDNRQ

For `COc1cc(-c2ccc3ncc4c(c3c2)n(-c2cccnc2C)c(=O)n4C)cnc1C(OC)OC` [Example 2.27, 8-(6-Dimethoxymethyl-5-methoxy-pyridin-3-yl)-3-methyl-1-(2-methyl-pyridin-3-yl)-1,3-dihydro-imidazo[4,5-c]quinolin-2-one], the IC50 in assay [1] (read-out: EPK_PI3Kdelta/IC50) came out at 406 nM; in assay [2] (read-out: EPK_PI3Kalfa/IC50), 80 nM.
On to `CCOc1cc(-c2ccc3ncc4c(c3c2)n(-c2cccnc2C)c(=O)n4C)cnc1COC` [Example 2.28, 8-(5-Ethoxy-6-methoxymethyl-pyridin-3-yl)-3-methyl-1-(2-methyl-pyridin-3-yl)-1,3-dihydro-imidazo[4,5-c]quinolin-2-one], for which the IC50 in assay [1] (read-out: EPK_PI3Kdelta/IC50) was found to be 54 nM; in assay [2] (read-out: EPK_PI3Kalfa/IC50) it was 267 nM.
Take `Cc1ncccc1-n1c(=O)n(C)c2cnc3ccc(-c4cncc(N5CCC5)c4)cc3c21` [Example 2.29, 8-(5-Azetidin-1-yl-pyridin-3-yl)-3-methyl-1-(2-methyl-pyridin-3-yl)-1,3-dihydro-imidazo[4,5-c]quinolin-2-one]: the values for the IC50 in assay [1] (read-out: EPK_PI3Kdelta/IC50) and in assay [2] (read-out: EPK_PI3Kalfa/IC50) were 504 nM and 179 nM, respectively.
On to `CCNc1cc(-c2ccc3ncc4c(c3c2)n(-c2cccnc2C)c(=O)n4C)cnc1CO` [Example 2.31, 8-(5-Ethylamino-6-hydroxymethyl-pyridin-3-yl)-3-methyl-1-(2-methyl-pyridin-3-yl)-1,3-dihydro-imidazo[4,5-c]quinolin-2-one], for which the IC50 in assay [1] (read-out: EPK_PI3Kdelta/IC50) is 25 nM; in assay [2] (read-out: EPK_PI3Kalfa/IC50) it was 14 nM.
For `CNc1cc(-c2ccc3ncc4c(c3c2)n(-c2cccnc2C)c(=O)n4C)cnc1C` [Example 2.32, 3-Methyl-8-(6-methyl-5-methylamino-pyridin-3-yl)-1-(2-methyl-pyridin-3-yl)-1,3-dihydro-imidazo[4,5-c]quinolin-2-one], the IC50 in assay [1] (read-out: EPK_PI3Kdelta/IC50) and in assay [2] (read-out: EPK_PI3Kalfa/IC50) was 31 nM each time.
Consider `CCOc1ncc(-c2ccc3ncc4c(c3c2)n(-c2ncccc2C)c(=O)n4C)cn1` [Example 3.1, 8-(2-Ethoxy-pyrimidin-5-yl)-3-methyl-1-(3-methyl-pyridin-2-yl)-1,3-dihydro-imidazo[4,5-c]quinolin-2-one], for which the IC50 in assay [1] (read-out: PI3Kdelta/IC50) is 851 nM; in assay [2] (read-out: PI3Kalfa/IC50), 410 nM.
As for `Cc1cccnc1-n1c(=O)n(C)c2cnc3ccc(-c4ccc(C(N)=O)cc4)cc3c21` [Example 3.3, 4-[3-Methyl-1-(3-methyl-pyridin-2-yl)-2-oxo-2,3-dihydro-1H-imidazo[4,5-c]quinolin-8-yl]-benzamide], the IC50 in assay [1] (read-out: PI3Kdelta/IC50) worked out at 834 nM; in assay [2] (read-out: PI3Kalfa/IC50), 51 nM.
In the case of `CNc1ncc(-c2ccc3ncc4c(c3c2)n(-c2ncccc2C)c(=O)n4C)cn1` [Example 3.4, 3-Methyl-8-(2-methylamino-pyrimidin-5-yl)-1-(3-methyl-pyridin-2-yl)-1,3-dihydro-imidazo[4,5-c]quinolin-2-one], the IC50 worked out at 236 nM in assay [1] (read-out: PI3Kdelta/IC50) and 80 nM in assay [2] (read-out: PI3Kalfa/IC50).
Regarding `Cc1cccnc1-n1c(=O)n(C)c2cnc3ccc(-c4ccc(CO)nc4)cc3c21` [Example 3.9, 8-(6-Hydroxymethyl-pyridin-3-yl)-3-methyl-1-(3-methyl-pyridin-2-yl)-1,3-dihydro-imidazo[4,5-c]quinolin-2-one], the IC50 in assay [1] (read-out: PI3Kdelta/IC50) is 583 nM; in assay [2] (read-out: PI3Kalfa/IC50), 383 nM.
As for `COc1ccc(-c2ccc3ncc4c(c3c2)n(-c2ncccc2C)c(=O)n4C)cc1OC` [Example 3.10, 8-(3,4-Dimethoxy-phenyl)-3-methyl-1-(3-methyl-pyridin-2-yl)-1,3-dihydro-imidazo[4,5-c]quinolin-2-one], the figures for the IC50 in assay [1] (read-out: PI3Kdelta/IC50) and in assay [2] (read-out: PI3Kalfa/IC50) were 151 nM and 57 nM, respectively.
As for `Cc1cccnc1-n1c(=O)n(C)c2cnc3ccc(-c4cnc(N)c(C(F)(F)F)c4)cc3c21` [Example 3.12, 8-(6-Amino-5-trifluoromethyl-pyridin-3-yl)-3-methyl-1-(3-methyl-pyridin-2-yl)-1,3-dihydro-imidazo[4,5-c]quinolin-2-one], the IC50 worked out at 21 nM in assay [1] (read-out: PI3Kdelta/IC50) and 16 nM in assay [2] (read-out: PI3Kalfa/IC50).
The matching figures for `Cc1ccncc1-n1c(=O)n(C)c2cnc3ccc(-c4ccc(CO)nc4)cc3c21` [Example 4.1, 8-(6-Hydroxymethyl-pyridin-3-yl)-3-methyl-1-(4-methyl-pyridin-3-yl)-1,3-dihydro-imidazo[4,5-c]quinolin-2-one]: 406 nM and 230 nM.
The corresponding values for `CCOc1ccc(-c2ccc3ncc4c(c3c2)n(-c2cnccc2C)c(=O)n4C)cn1` [Example 4.2, 8-(6-Ethoxy-pyridin-3-yl)-3-methyl-1-(4-methyl-pyridin-3-yl)-1,3-dihydro-imidazo[4,5-c]quinolin-2-one] are 401 nM and 206 nM.
The corresponding values for `COc1ccc(-c2ccc3ncc4c(c3c2)n(-c2cnccc2C)c(=O)n4C)cn1` [Example 4.3, 8-(6-Methoxy-pyridin-3-yl)-3-methyl-1-(4-methyl-pyridin-3-yl)-1,3-dihydro-imidazo[4,5-c]quinolin-2-one] are 120 nM and 73 nM.
Regarding `Cn1c(=O)n(-c2cccnc2)c2c3cc(-c4ccc(CO)nc4)ccc3ncc21` [Example 5.1, 8-(6-Hydroxymethyl-pyridin-3-yl)-3-methyl-1-pyridin-3-yl-1,3-dihydro-imidazo[4,5-c]quinolin-2-one], the IC50 turned out to be 88 nM in assay [1] (read-out: PI3Kdelta/IC50) and 74 nM in assay [2] (read-out: PI3Kalfa/IC50).
Take `CN(C)c1ccc(-c2ccc3ncc4c(c3c2)n(-c2cccnc2)c(=O)n4C)cn1` [Example 5.3, 8-(6-Dimethylamino-pyridin-3-yl)-3-methyl-1-pyridin-3-yl-1,3-dihydro-imidazo[4,5-c]quinolin-2-one]: the results for the IC50 in assay [1] (read-out: PI3Kdelta/IC50) and in assay [2] (read-out: PI3Kalfa/IC50) were 193 nM and 47 nM, respectively.
For the compound `CCOc1ccc(-c2ccc3ncc4c(c3c2)n(-c2cccnc2F)c(=O)n4C)cn1` [Example 6.1, 8-(6-Ethoxy-pyridin-3-yl)-1-(2-fluoro-pyridin-3-yl)-3-methyl-1,3-dihydro-imidazo[4,5-c]quinolin-2-one], the results for the IC50 in assay [1] (read-out: PI3Kdelta/IC50) and in assay [2] (read-out: PI3Kalfa/IC50) were 64 nM and 21 nM, respectively.
With `Cn1c(=O)n(-c2cccnc2F)c2c3cc(-c4cnc(N)c(C(F)(F)F)c4)ccc3ncc21` [Example 6.2, 8-(6-Amino-5-trifluoromethyl-pyridin-3-yl)-1-(2-fluoro-pyridin-3-yl)-3-methyl-1,3-dihydro-imidazo[4,5-c]quinolin-2-one], the IC50 turned out to be 12 nM in assay [1] (read-out: PI3Kdelta/IC50) and 9 nM in assay [2] (read-out: PI3Kalfa/IC50).
For `Cc1nc(F)ccc1-n1c(=O)n(C)c2cnc3ccc(-c4cnc(N)c(C(F)(F)F)c4)cc3c21` [Example 7.1, 8-(6-Amino-5-trifluoromethyl-pyridin-3-yl)-1-(6-fluoro-2-methyl-pyridin-3-yl)-3-methyl-1,3-dihydro-imidazo[4,5-c]quinolin-2-one], the IC50 is 5 nM in assay [1] (read-out: PI3Kdelta/IC50) and 4 nM in assay [2] (read-out: PI3Kalfa/IC50).
For the compound `Cc1nc(F)ccc1-n1c(=O)n(C)c2cnc3ccc(-c4cnc5c(ccn5C)c4)cc3c21` [Example 7.2, 1-(6-Fluoro-2-methyl-pyridin-3-yl)-3-methyl-8-(1-methyl-1H-pyrrolo[2,3-b]pyridin-5-yl)-1,3-dihydro-imidazo[4,5-c]quinolin-2-one], the IC50 worked out at 31 nM in assay [1] (read-out: PI3Kdelta/IC50) and 32 nM in assay [2] (read-out: PI3Kalfa/IC50).
Regarding `CCOc1ccc(-c2ccc3ncc4c(c3c2)n(-c2ccc(F)nc2C)c(=O)n4C)cn1` [Example 7.3, 8-(6-Ethoxy-pyridin-3-yl)-1-(6-fluoro-2-methyl-pyridin-3-yl)-3-methyl-1,3-dihydro-imidazo[4,5-c]quinolin-2-one], the IC50 came to 71 nM in assay [1] (read-out: PI3Kdelta/IC50) and 67 nM in assay [2] (read-out: PI3Kalfa/IC50).
